Reference: US10934255B2, “Nrf and HIF activators/HDAC inhibitors and therapeutic methods using the same” (THE BOARD OF TRUSTEES OF THE UNIVERSITY OF ILLINOIS, priority 2017, dated 2021)
Like-named read-outs stand apart in the source and are kept apart here.

How the values were obtained:
Human HDAC1 = molecular target: T1, Human HDAC1 (Homo sapiens, UniProt Q13547); experiment: HDAC1 inhibition assay (fluorogenic p53 peptide substrate); assay type: biochemical
T1 construct: Full length with C-terminal GST tag, MW=79.9 kDa; GST (C); host or cells: Sf9 insect cells (baculovirus)
T1 sequence (Q13547 whole entry): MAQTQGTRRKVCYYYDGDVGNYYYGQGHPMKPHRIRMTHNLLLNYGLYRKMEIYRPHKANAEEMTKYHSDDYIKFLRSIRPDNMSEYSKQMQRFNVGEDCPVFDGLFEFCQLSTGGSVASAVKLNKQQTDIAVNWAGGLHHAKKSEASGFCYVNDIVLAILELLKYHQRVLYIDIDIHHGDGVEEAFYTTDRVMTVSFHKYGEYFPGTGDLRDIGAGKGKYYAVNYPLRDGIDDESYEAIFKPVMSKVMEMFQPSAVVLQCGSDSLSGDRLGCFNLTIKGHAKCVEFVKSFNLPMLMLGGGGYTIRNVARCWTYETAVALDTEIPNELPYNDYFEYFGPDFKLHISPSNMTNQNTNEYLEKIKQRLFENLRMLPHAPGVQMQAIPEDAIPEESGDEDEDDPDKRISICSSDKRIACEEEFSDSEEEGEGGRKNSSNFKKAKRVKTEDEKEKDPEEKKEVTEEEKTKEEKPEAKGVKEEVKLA
Method: The HDAC1, 2, 4, 5, 6, 7, 8, 9, 10, and 11 assays used isolated recombinant human protein; HDAC3/NcoR2 complex was used for the HDAC3 assay. Substrate for HDAC1, 2, 3, 6, 10, and 11 assays is a fluorogenic peptide from p53 residues 379-382 (RHKKAc); substrate for HDAC8 is fluorogenic diacyl peptide based on residues 379-382 of p53 (RHKAcKAc). Acetyl-Lys(trifluoroacetyl)-AMC substrate was used for HDAC4, 5, 7, and 9 assays. Compounds were dissolved in DMSO and tested in 10-dose IC50 mode with 3-fold serial dilution starting at 30 μM. Control Compound Trichostatin A (TSA) was tested in a 10-dose IC50 with 3-fold serial dilution starting at 5 μM. IC50 values were extracted by curve-fitting the dose/response slopes. Assays were performed in duplicate and IC50 values are an average of data from both experiments.
Human HDAC1 (GenBank Accession No. NM_004964): Full length with C-terminal GST tag, MW=79.9 kDa, expressed by baculovirus expression system in Sf9 cells. Enzyme is in 50 mM Tris-HCl, pH 8.0, 138 mM NaCl, 20 mM glutathione, and 10% glycerol, and stable for >6 months at −80° C. Purity is >10% by SDS-PAGE. Specific Activity is 20 U/μg, where one U=1 pmol/min under assay condition of 25 mM Tris/Cl, pH8.0, 137 mM NaCl, 2.7 mM KCl, 1 mM MgCl2, 0.1 mg/ml BSA, 100 μM HDAC substrate, and 13.2 ng/μl HDAC1, incubation for 30 min at 30° C.
Substrate for HDAC1 and HDAC6: Acetylated peptide substrate for HDAC, based on residues 379-382 of p53 (Arg-His-Lys-Lys(Ac)), a site of regulatory acetylation by the p300 and CBP acetyltransferases (lysines 381, 382)1-6, is the best for HDAC from among a panel of substrates patterned on p53, histone H3 and histone H4 acetylation sites7.
Reaction Buffer: 50 mM Tris-HCl, pH 8.0, 137 mM NaCl, 2.7 mM KCl, 1 mM MgCl2, 1 mg/ml BSA.
HDAC1: 75 nM HDAC1 and 50 μM HDAC substrate are in the reaction buffer and 1% DMSO final. Incubate for 2 hours at 30° C.
All IC50 values are automatically calculated using the GraphPad Prism version 5 and Equation of Sigmoidal dose-response (variable slope): Y=Bottom+(Top−Bottom)/(1+10^((Log EC50−X)*HillSlope)), where X is the logarithm of concentration, Y is the response, Y starts at Bottom and goes to Top with a sigmoid shape. In most cases, “Bottom” is set 0, and “Top” is set “less than 120%”. This is identical to the “four parameter logistic equation”. IC50 curves also are drawn using the GraphPad Prism, and IC50 values and Hill slopes are provided.
HDAC Activity Assays: HDAC assay is performed using fluorescently-labeled acetylated substrate, which comprises an acetylated lysine side chain. After incubation with HDAC, deacetylation of the substrate sensitizes the substrate such that, in a second step, treatment with the detection enzyme produces a fluorophore. HDACs 1 and 6 were expressed as full length fusion proteins. Purified proteins were incubated with 50 μM fluorescently-labeled acetylated peptide substrate and test compound for 2 hours at RT in HDAC assay buffer containing 50 mM Tris-HCl (pH 8.0), 137 mM NaCl, 2.7 mM KCl, 1 mM MgCl2, 1% DMSO, and 1% BSA.
Reactions were terminated by the addition of the Developer after 2 hours, and the development of fluorescence signal, which was relative to the amount of deacetylated peptide, was monitored by time-course measurement of EnVision (PerkinElmer). The HDAC activity was estimated from the slope of time-course measurement of the fluorescence intensity. The slope of no-enzyme control (substrate alone) was served as background, and % Enzyme activity was calculated using background-subtracted slope of no inhibitor control (DMSO) as 100% activity.

acetylated α-tubulin = experiment: Tubulin acetylation in N2a cells (western blot); assay type: cell-based, mouse; conditions: normalized to the values of DMSO
Method: Cells were collected using RIPA buffer. WB was analyzed using Image QuantTL and the ratio between the intensity of the acetylated tubulin and the tubulin bands was calculated. These ratios were subsequently normalized to the values of DMSO (fold increase). For each sample 50 μg protein was loaded on a 12% SDS-PAGE gel and blotted on a PVDF membrane. The integrated density of acetylated α-tubulin and α-tubulin was measured on WB using Image J software. Furthermore the ratio between the integrated density of acetylated α-tubulin and α-tubulin was calculated.

Nrf2 = Nrf2 activation, Neh2-luc reporter assay; assay type: cell-based; conditions: measured at 10 μM
Method: (§1) The present compounds were evaluated for an ability to activate Nrf2 and HIF-1α. Table 1 summarizes Nrf2 activation data obtained in Neh2-luc reporter assay; and HIF1 activation measured in ODD reporter assay.

HIF-1α = experiment: HIF1 activation, ODD reporter assay; assay type: cell-based; conditions: measured at 10 μM
Method: as §1

[1] = Table 1, performed by Reaction Biology Corporation, read-out: HDAC isoform IC50 (nM) 1
[2] = Table 2 isoform selectivity, read-out: HDAC Inhibition (IC50 uM) isoform 1

Row | IC50 (Human HDAC1; [1]) [nM] | Compound | IC50 (Human HDAC1; [2]) [nM] | Ratio acetyl tub/tub fold increase (acetylated α-tubulin; 0.01 uM) | fold induction at 10 µM (Nrf2) | fold induction at 10 µM (HIF-1α) | Ratio acetyl tub/tub fold increase (acetylated α-tubulin; 0.1 uM) | Ratio acetyl tub/tub fold increase (acetylated α-tubulin; 1.0 uM)
1 | 2630 | Cn1c(NCc2ccc(C(=O)NO)cc2)nc2ccccc21 [II-ING-13, N-Hydroxy-4-(((1-methyl-1H-benzo[d]imidazol-2-yl)amino)methyl)benzamide] | 2550 | 2.0 (0.01 uM) fold | 1.8 | 2.6 | – | –
2 | 17600 | O=C(NO)c1ccc(CN2CCc3ccccc32)cc1 [II-ING-44, N-Hydroxy-4-(indolin-1-ylmethyl)benzamide] | – | – | 2.3 | 1.4 | 2.68 (0.1 uM) fold | –
3 | 20000 | O=C(NO)c1ccc(CN2CCc3cc(F)ccc32)cc1 [II-ING-42, 4-((5-Fluoroindolin-1-yl)methyl)-N-hydroxybenzamide] | – | – | 7.7 | 1.4 | 2.46 (0.1 uM) fold | –
4 | 4950 | COc1ccc2c(c1)CCN2Cc1ccc(C(=O)NO)cc1 [II-ING-49, N-Hydroxy-4-((5-methoxyindolin-1-yl)methyl)benzamide] | – | – | 2.4 | 1 | 2.61 (0.1 uM) fold | –
5 | 12700 | O=C(NO)c1ccc(CN2CCc3cc(Cl)ccc32)cc1 [II-ING-39, 4-((5-Chloroindolin-1-yl)methyl)-N-hydroxybenzamide] | – | – | 6.5 | 7 | 1.69 (0.1 uM) fold | –

Row | Compound | IC50 (Human HDAC1; [1]) [nM] | IC50 (Human HDAC1; [2]) [nM] | Ratio acetyl tub/tub fold increase (acetylated α-tubulin; 0.01 uM) | fold induction at 10 µM (Nrf2) | fold induction at 10 µM (HIF-1α) | Ratio acetyl tub/tub fold increase (acetylated α-tubulin; 0.1 uM) | Ratio acetyl tub/tub fold increase (acetylated α-tubulin; 1.0 uM)
6 | O=C(NO)c1ccc(CN2C(=O)C(F)(F)c3ccccc32)cc1 [II-ING-66, 4-((3,3-Difluoro-2-oxoindolin-1-yl)methyl)-N-hydroxybenzamide] | 3550 | – | – | 9.9 | 5.6 | – | –
7 | O=C(NO)c1ccc(CN2CCc3ccc(Cl)cc32)cc1 [II-ING-6, 4-((6-Chloroindolin-1-yl)methyl)-N-hydroxybenzamide] | 5580 | 3770 | – | 5.6 | 7.5 | – | 15.5 1.0 uM fold
8 | O=C(NO)c1ccc(CN2CCc3ccc(F)cc32)cc1 [II-ING-41, 4-((6-Fluoroindolin-1-yl)methyl)-N-hydroxybenzamide] | 11800 | 3670 | – | 7.8 | 3.6 | 3.47 (0.1 uM) fold | –
